# Patent publication US20190077774A1, “PEROXISOME PROLIFERATOR-ACTIVATED RECEPTOR AGONISTS” (City of Hope, priority 2017, published 2019)
# Several values for one entry are separate records, joined by “and”; a condition that tells them apart may be missing. Identical values can stand only once. Entries after “also recorded” stand apart in the source; their conditions may differ.
# Tests used:
# human PPARα = target: T1, human PPARα (Homo sapiens, UniProt Q07869); test: PPAR-GAL4 transactivation assay in transiently transfected CV-1 cells; format: cell-based
# T1 construct: expressed in transfected cells; host or cells: CV-1 (monkey kidney) cells, transient transfection
# T1 sequence (Q07869 159-468): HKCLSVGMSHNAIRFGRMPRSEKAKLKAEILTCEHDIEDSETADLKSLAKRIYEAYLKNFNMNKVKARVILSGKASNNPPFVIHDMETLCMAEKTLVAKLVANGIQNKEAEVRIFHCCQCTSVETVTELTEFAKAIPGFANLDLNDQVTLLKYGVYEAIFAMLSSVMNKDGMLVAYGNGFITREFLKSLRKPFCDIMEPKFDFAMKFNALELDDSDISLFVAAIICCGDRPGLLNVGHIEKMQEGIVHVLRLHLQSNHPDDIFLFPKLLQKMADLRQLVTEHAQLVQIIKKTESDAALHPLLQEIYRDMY
# Procedure: To assess the functional transcriptional activity of these compounds, cell-based assays using chimeric receptor Gal4 DNA-binding domain (DBD)-NR ligand binding domain cotransfection assay (LBDs of PPARα, PPARγ, and PPARδ) were performed. As an initial screen to determine the PPARα activity and selectivity, all compounds were evaluated for in vitro potency and selectivity by transfection testing, using CV-1 cells transfected with human and mouse PPARs. MH100×4 is a luciferase reporter with four copies of a GAL4 UASG response element, where GAL-I refers to the ligand-binding domain of the indicated receptor fused to the C-terminus of the GAL4 DNA-binding domain. Assays were performed using a Biomek automated workstation in which the genes for the nuclear receptor, as well as a plasmid containing a response element upstream of a luciferase cDNA, are transfected into CV-1 cells. Compounds were evaluated for their ability to activate human and mouse PPARs at […] test concentrations. […] The transactivation activity of the series of compounds (DY121-132, 10a-g) toward PPARα was expressed as EC50, which is the concentration of the test compound that affords half-maximum activity, as summarized in Table 1.
# Cell-based reporter gene assays Cell based transactivation assays were performed in CV 1 cells as described (Forman, et al.). PPARα activity was assayed with a GAL4 reporter construct and fusion proteins containing the ligand binding domains of human PPARα, human PPARγ and human PPARδ linked to the DNA binding domain of yeast GAL4. Reporter constructs (300 ng/10^5 cells) and cytomegalovirus-driven expression vectors (20-50 ng/10^5 cells) were added as indicated along with CMX-b-gal (500 ng/10^5 cells) as an internal control. Cells were transiently transfected by Lipofectamine as described. Cells were incubated with DNA complexed liposomes for 2 h and subsequently treated for approximately 45 h with phenol red free DMEM FBS containing the indicated compounds. After exposure to ligand, the cells were harvested and assayed for luciferase and β-galactosidase activity. All points were assayed in triplicate and varied by less than 15%. Each experiment was repeated three or more times with similar results. Fold activation is reported.
# In vitro binding and transfection studies. As an initial screen to determine the PPARα, PPARγ, and PPARδ activity, all compounds were evaluated for in vitro potency and selectivity by transfection testing, using CV-1 cells transfected with human and mouse PPARs. MH100×4 is a luciferase reporter with four copies of a GAL4 USAG response element, where GAL-I refers to the ligand-binding domain of the indicated receptor fused to the C-terminus of the GAL4 DNA-binding domain. Assays were performed using a Biomek automated workstation in which the gene for the nuclear receptor, as well as a plasmid containing a response element upstream of a luciferase cDNA, are transfected into CV-1 cells. Compounds were evaluated for their ability to activate human PPARs at 1, 2.5, 3, and 5 uM test concentrations.
# Compounds were screened for agonist activity towards PPAR-GAL4 chimeric receptors in transiently transfected CV-1 cells as described. EC50 is the concentration of test compound that gave 50% maximum efficacy.
# C57Bl/6J female mice [1] = test: Serum triglyceride and lipid effects in C57Bl/6J female mice; format: in vivo
# Procedure: FIG. 5. Ligand Screening Results: DY series compounds and controls administered once to C57Bl/6J female mice at 8 weeks of age. Mice were treated at 3 mg/kg for all compounds except WY14643 (100 mg/kg). Compounds gavaged at 0900; mice sacrificed 24 h later. Ordered by degree of effect on triglyceride lowering. According to our screening test, DY series compounds reduce triglycerides.
# Next, we would like to investigate the therapeutic potential of DY121 to see if it could be candidate for treating NAFLD/NASH. Note that the pathogenesis of NASH has not yet been fully elucidated so far; however, the ‘two-hit’ theory is widely accepted. The first hit is the accumulation of fatty acids in the liver to cause steatosis. […] The newly produced PPARα agonist DY121 and its analogs, as well as WY100=WY14643 and GW3 (GW7647), were evaluated in C57Bl/6J female mice for their ability to alter serum triglyceride, liver gene expression, and glucose. Fibric acid derivatives (100 mg/kg/day) was used as a control, WY100 (WY14, 643, 100 mg/kg/day), GW3 (GW7647-positive control, 3 mg/kg/day), DY121 (˜3 mg/kg/day), respectively. DY series compounds and controls administered once to C57Bl/6J female mice at 8 weeks of age. Mice were treated at 3 mg/kg for all compounds except WY14643 (100 mg/kg).
# C57Bl/6J female mice [2] = test: as above; format: in vivo; remark: listed apart in the source
smiles,measurement,setting,value
"COc1ccc(Cn2c(CCCc3ccc(OC(C)(C)C(=O)O)cc3)nn(Cc3ccc(C)cc3)c2=O)cc1 [10a, 2-(4-{3-[4-(4-Methoxy-benzyl)-1-(4-methyl-benzyl)-5-oxo-4,5-dihydro-1H[1,2,4]triazol-3-yl]-propyl}-phenoxy)-2-methyl-propionic acid]",fold greater PPARα agonistic activity compared to LY518674,human PPARα,42 fold
same,EC50,"human PPARα; PPAR-GAL4 chimeric receptor, CV-1 cells, read-out: EC50(nM) hPPARα",0.85 nM and 1 nM
same,selectivity over PPARγ and PPARδ,human PPARα; PPAR-GAL4 transactivation assays,excellent selectivity
same,hepatic TG accumulation,"C57Bl/6J female mice [1]; 3 mg/kg DY121, WY14643 100 mg/kg",suppressed; also recorded: more apparent
same,serum triglyceride (TG) concentrations,C57Bl/6J female mice [1]; DY121-treated mice vs control,significantly decreased
same,"triglycerides, time course","C57Bl/6J female mice [2]; 24 h vs 72 h, wild type and PPARα-knockout mice (FIG. 8)",maintained over 72 h in wild type but not PPARα-knockout mice
same,"triglycerides, chronic treatment",C57Bl/6J female mice [2]; 7 day period (FIG. 10),suppressed triglycerides over the entire 7 day period
same,dose-response of triglyceride suppression,"C57Bl/6J female mice [2]; FIG. 7, listed as DY121",Dose-response suppression; also recorded: dose-dependent anti-dyslipidemic effects
same,FFA and glycerol time course,C57Bl/6J female mice [2]; FIG. 14 and 15,early increase (lipolytic burst) followed by decline
